Source: patent US20030203969A1, “Pharmaceutically active aromatic guanylhydrazones” (priority 2000, published 2003)

Key:
[1] = system: clinical HIV-1 isolates; assay: Inhibition of clinical HIV-1 isolates in PBMCs from HIV-1-infected patients; format: cell-based; conditions: d14
Description: HIV replication was measured either by p24 HIV Antigen Capture Assay Kit (ELISA; HIVAG-1 Monoclonal kit BIA011; Abbott) following the manufacturer's recommendation, or by using the Quantiplex HIV-1 RNA 3.0 Assay (bDNA) system (Chiron Diagnostics). The latter assay is a signal amplification nucleic acid probe assay (employing a sandwich nucleic acid hybridization procedure) for direct quantitation of HIV RNA in human plasma. There, in brief, HIV-1 is first concentrated from plasma by centrifugation. After release of genomic HIV-1 RNA from the virions, the RNA is captured to a microwell by a set of specific, synthetic oligonucleotide capture probes. A set of target probes hybridize to both the viral RNA and the pre-amplifier probes. The capture probes, comprised of 17 individual capture extenders, and the target probes, comprised of 81 individual target extenders, bind to different regions of the pol gene of the viral RNA. The amplifier probe hybridizes to the pre-amplifier forming a branched DNA (bDNA) complex. Then, multiple copies of an alkaline phosphatase labeled probe are hybridized to this immobilized bDNA complex. Detection is achieved by incubating the entire complex with a chemoluminescent substrate. Light emission is directly proportional to the amount of HIV-1 RNA present in each sample, and results are recorded as relative light units by an appropriate analyzer.
Peripheral blood mononuclear cells (PBMCs) from HIV-1-infected patients were isolated—(after informal consent was given)—by Biocoll (Biochrom) gradient centrifugation. 1×10^6/ml PBMCs were cultured (5 ml in a six well 32-mm plate) in presence of the test drugs or in DMSO (control diluent) in RPMI 1640 medium supplemented with 10% autologous serum and 2 mM L-Glutamine at 37° C. and 5% CO2.
The culture medium was changed every 3 days during the experiments. Once a week, each culture was split 1:1 and 2×10^6 feeder-PBMCs (per well) and recombinant Interleukin 2 (IL-2) [10U/ml] (Roche) was added. Prior to addition to the cell cultures, the feeder-PBMCs, prepared from 4 healthy donors, were treated for 4 days with PHA-P and PB (2 μg/ml each per 2×10^6 cells). At day 14, viability of the PBMCs (Trypan-blue staining), cell count and virus load (p24 antigen: Innotest HIV Antigen mAb, Innogenetics N. V., Gent, Belgium, or bDNA: HIV-1 RNA 3.0 Assay, Bayer AG, Tarrytown, N.Y., USA) was determined. No significant differences in cell viability were observed (˜75-80% vital cells).
At day 14 of cultivation, the virus replicated vigorously in all untreated cultures. Numbers describe percent inhibition of HIV-1 replication as compared to control experiments.

[2] = system: NNRTI-resistant HIV-1; assay: Inhibition of multiple anti-retroviral drug resistant HIV-1 strains: NNRTI-resistant; format: cell-based
Description: In addition, various different “types” of multiple anti-retroviral drug resistant HIV-1 strains were also tested: […]

[3] = system: HepG2-2.2.15 cells; assay: Cell viability of HepG2-2.2.15 cells (dye uptake); format: cell-based, human; conditions: inhibits cell growth by 50%, read-out: TC50 (the source's name)
Description: Human HepG2-2.2.15 cells (ATCC Cat. No. CRL-11997), chronically infected with HBV, are plated in 96-well microtiter plates in DMEM medium supplemented with fetal bovine serum. After incubation at 37° C. in a humidified, 5% CO2 environment for 16-24 hours, the monolayer of HepG2-2.2.15 cells is washed and the medium is replaced with complete medium containing various concentrations of test compound. Every three days during the experiments, the culture medium is replaced with fresh medium containing the appropriately diluted test compound. Six days following the initial administration of the test compound, the cell culture supernatant is collected and clarified by centrifugation. The cell viability is evaluated by a dye uptake procedure (Promega's Cell Titer Aqueous One Solution). Virion-associated HBV DNA present in the tissue culture supernatant is amplified employing PCR technology using primer pairs derived from the HBV strain ayw. Subsequently, the PCR-amplified HBV DNA is detected in real-time by monitoring increases in fluorescence signals that result from exonucleolytic degradation of a quenched fluorescent probe molecule following hybridization of the probe to the amplified HBV DNA (TaqMan; Perkin-Elmer).

[4] = system: MRC-5 (human embryonic lung fibroblast) cells; assay: Drug toxicity in MRC-5 cells (CellTiter 96); format: cell-based; conditions: six day incubation, read-out: TC50 (the source's name)
Description: Drug toxicity is determined in parallel by seeding MRC-5 cells in 96 well plates and adding drugs to triplicate wells at two dilutions. After a six day incubation period, cell viability is determined using CellTiter 96 Aqueous One Solution (Promega).

With `CC(=NNC(=N)N)c1cc(NC(=O)CCCCCCCCC(=O)Nc2cc(C(C)=NNC(=N)N)cc(C(C)=NNC(=N)N)c2)cc(C(C)=NNC(=N)N)c1` [Compound 4, N,N′-bis (3,5-diacetylphenyl) decane diamide tetrakis (amidinohydrazone)] the “percent inhibition of HIV-1 replication as compared to control” value (shortened to “percent inhibition of HIV-1 replication”) ([1]; HIV-infected PBMCs from patient 1, 0.5 μM) was 91.6%, the “percent inhibition of HIV-1 replication” value ([1]; HIV-infected PBMCs from patient 1, 1.0 μM) was 90.7% and the “percent inhibition of HIV-1 replication” value ([1]; HIV-infected PBMCs from patient 2, 0.5 μM) was 85.8%. For the same compound, the “percent inhibition of HIV-1 replication” value ([1]; HIV-infected PBMCs from patient 2, 1.0 μM) was 97.6%, the “percent inhibition of HIV-1 replication” value ([1]; HIV-infected PBMCs from patient 3, 0.5 μM) was 91% and the “percent inhibition of HIV-1 replication” value ([1]; HIV-infected PBMCs from patient 3, 1.0 μM) was 90%. For the same compound, the “[%] inhibition of virus replication” value ([2]; NNRTI-resistant HIV-1, 0.5 μM) was 71%, the “[%] inhibition of virus replication” value ([2]; NNRTI-resistant HIV-1, 1.0 μM) was 82% and the CC50 [3] was greater than 20 µM. For the same compound, the CC50 [4] was 13.6 µM.
